Row | melting point | SMILES
1 | 52 to 55 °C | Cc1ccc(CCCNCC(O)c2cccc(C(F)(F)F)c2)cc1 (stereo not drawn)
2 | 65.5 to 66.5 °C | CONS(=O)(=O)c1ccc(Cl)s1
3 | 222 to 226 °C | Cc1cccc2c1COC(=O)N2
4 | 105 to 112 °C | N#Cc1cccc(C2SC[C@@H](C(=O)O)N2C(=O)CCCCCC(=O)N2C(c3cccc(C#N)c3)SC[C@H]2C(=O)O)c1 (stereo partly drawn)
5 | 97 to 99 °C | CCCCCOc1ccc2cc(C(C)C(=O)O)ccc2c1 (stereo not drawn)
6 | 114 to 116 °C | CCOCC1OC(n2cnc3c(NC4CCCC4)nc(Cl)nc32)C(O)C1O (stereo not drawn)
7 | 126 °C | CC(=O)N1CCN(c2c([N+](=O)[O-])cc([N+](=O)[O-])cc2C(F)(F)F)CC1
8 | 246 to 248 °C | CC1(C)OC(=O)Nc2c(F)cc(-c3ccc(F)c(Cl)c3)cc21
9 | 90 °C | COC(=O)CC(C)(C)C(C)(C)S(=O)(=O)c1ccc(C)cc1
10 | 45 to 47 °C | O=S(=O)(CC(Cl)C(F)=C(F)F)c1ccccc1 (stereo not drawn)
11 | 167 to 168 °C | O=S(=O)(c1ccc(Cl)cc1)C(c1ccc(C2OCCO2)cn1)c1cc(F)ccc1F (stereo not drawn)
12 | 112 to 114 °C | CC(C)(C)OC(=O)N1CC[C@H](Oc2ccc([N+](=O)[O-])cc2)C1
13 | 159 to 160 °C | Nc1nc(SC2CCC2)c2ncn(C3C=CC(CO)C3)c2n1 (stereo not drawn)
14 | 98 to 100 °C | CC(C)NC(=N)NC(=N)NOCCCOc1ccc(Cl)cc1
15 | 94 to 96 °C | COc1ccc(C2(O)CCC3(CC2)OCCO3)c2c1OCCO2
16 | 249 to 254 °C | Cc1cc2c(c3c1sc1ccc(O)cc13)C(=O)N(CCN(C)C)C2=O
17 | 94 to 96 °C | CCOC(=O)NCCN1c2ccccc2N2CCc3cccc(c32)C1C (stereo not drawn)
18 | 65 to 75 °C | Cc1nc(-c2ccccc2F)n(O)c1-c1cccnc1
19 | 74 to 76 °C | O=[N+]([O-])CS(=O)(=O)c1ccccc1Br
20 | 90 to 101 °C | N=C(N)NCCc1ccc(OCCC2Oc3ccccc3N(Cc3cccc(Cl)c3)C2=O)cc1 (stereo not drawn)
21 | 251 to 253 °C | CCCC(=O)c1cnc2c(OC)cc(O)cc2c1Nc1ccc(O)cc1C
22 | 196 to 198 °C | O=C(CCCCCCC(=O)c1ccc(O)cc1)c1ccc(O)cc1
23 | 183 to 185 °C | CC(C)(C)C(=O)ON=C(N)CN1C(=O)C2(COc3cc4c(cc32)OCO4)c2ccccc21 (stereo not drawn)
24 | 141 to 142 °C | CCn1nc(C)c2c1NC(=O)CC2C (stereo not drawn)
25 | 238 to 241 °C | CCN1CCCc2cc(C=C3SC(=O)NC3=O)ccc21

Row | melting point | SMILES
26 | 123 to 126 °C | Cc1ccccc1Nc1nc2ccc(CC(=O)Nc3ccc(C4(CC(=O)O)CCCC4)cc3)cc2o1
27 | 104 °C | CC(=O)N(C)C1(c2ccccc2)CCN(Cc2ccccc2)CC1
28 | 176 to 178 °C | CS(=O)(=O)Nc1ccc(OCCCN2C(=O)c3ccccc3C2=O)cc1
29 | 287 °C | CN(C)CCCNC(=O)c1ccc(/C=C/c2ccc3c(=O)[nH]ncc3c2)cc1
30 | 85 to 87 °C | CCOC(=O)C=Cc1cccnc1OCc1ccc(OCc2nc(-c3ccco3)oc2C)c(OC)c1
31 | 176 to 179 °C | CO[C@@H]1[C@@H](OC)[C@H](C)O[C@@H](OC(=O)Nc2ccc(-c3ccnc(-c4ccc(C(F)(F)F)cc4)n3)cc2)[C@@H]1OC
32 | 141 to 142 °C | CCOC(=O)N1CCN(c2ccncc2N)CC1
33 | 69 to 70 °C | OCCNC(c1ccccc1)c1ccccc1
34 | 56 to 57 °C | C=CCNc1nc(NCCCCCCC)c2scc(C)c2n1
35 | 260 to 261 °C | O=C(NC(Cc1ccc(OCc2ccccc2)cc1)C(=O)O)c1nc2ccc(-c3ccc(Cl)cc3)cc2[nH]1 (stereo not drawn)
36 | 330 °C | O=c1[nH]c2ccc(C(F)(F)F)cc2[nH]c1=O
37 | 229 °C | COc1ccc(CNc2ncccc2C(=O)O)cc1
38 | 211 to 214 °C | FC(F)(F)c1cc(-c2ccc(Cl)nn2)ccc1Cl
39 | 136 to 137 °C | CC(C)C[C@H](NC(=O)c1ccccc1)C(=O)NC#N
40 | 87.5 to 88.5 °C | O=CNC1=CCc2ccccc21
41 | 168 °C | COC(=O)C(=CN(C)C)n1ccc2ccc(-c3nccc(-c4ccccc4)n3)cc21
42 | 138 to 139 °C | O=Cc1ccc2ccnc(NC(=O)c3ccccc3)c2c1
43 | 156 °C | O=C1CN(c2ccccc2)C(=S)N1C1CCCCC1
44 | 107 to 108 °C | CN1c2ccc(C#CCOC3CCCCO3)cc2C(=O)CS1(=O)=O (stereo not drawn)
45 | 199 to 201 °C | COc1cccc(OC)c1C(=O)Nc1oncc1-c1ccc(C(F)(F)F)cc1
46 | 180 to 181 °C | O=C(OCC1OC(Oc2ccc([N+](=O)[O-])cc2)C(OC(=O)c2ccccc2)C(OC(=O)c2ccccc2)C1O)c1ccccc1 (stereo not drawn)
47 | 222 °C | CCCC(=O)NC(=O)C1c2ccccc2Oc2ccccc21
48 | 154 to 155 °C | COc1ccc2cccc(NC(C)=O)c2c1
49 | 48 to 50 °C | CCCCCCCCCCCCNC(=O)N1c2ccccc2C(C)CC1(C)C (stereo not drawn)
50 | 233 to 234 °C | CCOc1ccc(-c2nc(-c3cc(C(=O)O)c(O)cc3O)cs2)cc1OCC

Row | melting point | SMILES
51 | 222 to 225 °C | N#Cc1ccc2c(c1)C1OC1C1(CCCCC1)O2 (stereo not drawn)
52 | 124 to 125 °C | CCOC(=O)CSc1cccc(-c2nc(=O)c3ccccc3s2)n1
53 | 126 to 128 °C | CC(C)COC(=O)Nc1ccc(C2CCSCC2)cc1
54 | 205 to 208 °C | Cc1nccn1-c1ccc(O)cc1
55 | 248 to 250 °C | N#Cc1nc2ccc(Cl)cc2c2c1ncn2-c1ccccc1Cl
56 | 121 to 123 °C | Oc1cc2c(cc1CCCOc1ccc3ccccc3c1-c1nnn[nH]1)OC(CCc1ccccc1)C2 (stereo not drawn)
57 | 66 to 68.5 °C | Cc1cc(C)cc(OCCCC(=O)O)c1
58 | 189 to 190 °C | Cc1c2c(c(C(C)c3ccc(C(C)C)cc3)c(C)c1NC(=O)CC(C)(C)C)OCC2 (stereo not drawn)
59 | 90 °C | CCCCN(CCCC)CCCOc1ccc(S(=O)(=O)c2c(C(C)C)n(C)c3ccccc23)cc1
60 | 57 to 58 °C | CCCCCCCOc1ccc(C(=O)Cl)cc1OCCCCCCC
61 | 118 to 119 °C | CCCC(=O)N(Cc1ccc(-c2ccccc2C#N)cc1)c1nn(C)cc1C(=O)OCC
62 | 216 to 218 °C | Cc1ccc(-c2c(O)c(=O)c3ccccc3n2C)cc1
63 | 205 to 206 °C | NS(=O)(=O)c1ccc(NN=Cc2ccc(F)cc2)cc1
64 | 170 °C | CCON=C(CC)C1=C(O)CC(c2c(C)c([N+](=O)[O-])c(C)c([N+](=O)[O-])c2C)CC1=O (stereo not drawn)
65 | 108 to 111 °C | Cc1ccc(NC(=O)NCCN2CCN=C2c2ccccc2Cl)cc1
66 | 291 to 293 °C | CC1CC(=O)NN=C1c1ccc2c(c1)C1(CC1)C(=O)N2 (stereo not drawn)
67 | 89 to 91 °C | COC(=O)c1ccccc1NC(=O)CNc1ccccc1Br
68 | 154 to 155 °C | Cc1noc(NS(=O)(=O)c2ccc(-c3ccccc3)cc2)c1C
69 | 181 to 182 °C | Cc1cc(C(=O)N(C2CCCCC2)C2CCCC2)ccc1Cn1cnc2cccnc21
70 | 163 to 165 °C | COc1ccc2c(c1)CN(C)C(=O)C2c1cc(Cl)cc(Cl)c1 (stereo not drawn)
71 | 54 to 56 °C | CC(C)N(CCC(C#N)c1ccc(-c2ccccc2)cc1)C(C)C (stereo not drawn)
72 | 138 to 139 °C | Cc1cc(OCc2ccccc2)c(C23CC4CC(CC(C4)C2)C3)cc1Br
73 | 216 to 217 °C | COc1cc2c(cc1OC)C(=CO)C(=O)N2
74 | 63 to 64 °C | CCOC(=O)CC(=O)N(C)c1ccccc1N
75 | 158 °C | CN(C)S(=O)(=O)n1cc(-c2ccc(Cl)cc2Cl)nc1C1=NC(=O)C(=O)S1

Row | melting point | SMILES
76 | 114 to 117 °C | CCOC(=O)CSc1nc(Cl)c(C)c(NCc2ccc(Cl)cc2)n1
77 | 110 °C | Cc1c(C)c2c(c(C)c1N)CC(C)(C)O2
78 | 190 °C | CC(C)(C)OC(=O)CN(C(=O)CN1C(=O)c2ccccc2C1=O)c1ccccc1Cc1ccccc1
79 | 129 to 131 °C | OCCCc1cncn1Cc1noc2ccccc12
80 | 167 to 169 °C | CC(C)(C)COc1ccc(NC(=O)c2ccn(-c3ccc(F)cc3)c2)cc1C#N
81 | 206 to 207 °C | Cn1c(=O)c2sccc2n2cnc(-c3nc(C4CC4)no3)c12
82 | 33 °C | CCSc1cc(C(C)(C)C)c(O)c(C(C)(C)C)c1
83 | 238 to 240 °C | Cc1nc(-n2ccc(O)cc2=O)sc1C(=O)NCc1cccnc1
84 | 77 to 78 °C | Cc1csc(-c2nc(COc3ccc(CCCCn4ccnc4)cc3)co2)c1
85 | 95 to 98 °C | Cc1nc(/C=C/c2cccc(Cl)c2F)no1
86 | 171 °C | COc1cc2ccc3c4cc5c(cc4ncc3c2cc1OC)OCO5
87 | 190 to 191 °C | N#CCc1ccc(-c2nc3ccccc3o2)cc1Br
88 | 89 °C | CCOC(=O)C1(S(=O)(=O)c2ccc(OCc3ccccc3)cc2)CCN(Cc2ccccc2)CC1
89 | 117 °C | COC(=O)CC1(C)CCc2cc(C#N)ccc2C1=O (stereo not drawn)
90 | 296 to 298 °C | O=C1C2=C(NC3(C=N2)OCCO3)c2ccccc21
91 | 157 to 159 °C | CC(=O)c1cc(C(F)(F)F)cc(S(N)(=O)=O)c1
92 | 120 to 121 °C | CC(C)(C)OC(=O)N1CCC(C(=O)Nc2ccccc2Oc2ccc(Cl)cc2Cl)CC1
93 | 231 to 234 °C | CS(=O)(=O)c1cccc(NC(=O)c2cnn3c(C4CC4)cc(-c4ccc(C(F)(F)F)cc4)nc23)c1
94 | 166 to 167 °C | CCOC(=O)C1Cc2cc(OC)c(OC)cc2C(c2ccccc2)N1C(=O)CNC(=O)OC(C)(C)C (stereo not drawn)
95 | 119 to 120 °C | CCc1cnc(CSc2cnc(N)s2)o1
96 | 218 to 220 °C | CC(C)[C@H](NC(=O)CCC(=O)Nc1ccccc1)C(N)=O
97 | 268 to 269 °C | CN(C)c1ccc2cc(-c3ccn4ccnc4c3C#N)ccc2c1
98 | 165 to 168 °C | CSCc1ccc(NC(=O)/C=C/c2cnn(C)c2-c2ccc(F)cc2)cc1

Row | SMILES | melting point
99 | CC(=O)NCC1CN=C(c2ccccc2)c2cc(Cl)ccc2N1 (stereo not drawn) | 240 to 245 °C
100 | CN(C)C1(C#N)CCC(c2ccccc2)(N(C)C)CC1 (stereo not drawn) | 82 to 92 °C
101 | N#CC1CN1C(=S)NC(=O)c1ccccc1 (stereo not drawn) | 135 to 140 °C
102 | O=C(NCc1ccc(Cl)cc1)c1cn(CC2CCCO2)c2sc(CN3CCOCC3)cc2c1=O (stereo not drawn) | 191 to 195 °C
103 | Cc1nnc2n1-c1sc(C(N)=O)cc1C(c1ccccc1Cl)=NC2 | 230 to 232 °C

— a melting point compilation (Tetko et al.; mined from patent text by program, amines drawn as free bases though some values may be those of a salt)
